Measurements as given in patent publication US6201116A, “Halide indicators” (The Regents of the University of California, priority 1999, dated 2001).

Legend:
[1] = Fluorescence spectra / optical properties; assay type: physicochemical; parameters: key to Brightness: ++++: very bright; +++: bright; ++: moderate brightness; +: weak
Method: (§1) Computations. In vitro fluorescence quenching studies were carried out at peak excitation and emission wavelengths. Microliter aliquots of the sodium salt of the quenching anion (1 M) were added to indicator solution in 5 mM sodium phosphate (pH 7.2, unless indicated otherwise). Fluorescence intensities in the absence (Fo) and presence (F) of quencher anion ([Q]) were measured to give the Stem-Volmer constant (Kq) as defined by:
Fluorescence spectra reveal that LZQ and LMQ have broad excitation and emission peaks with maxima at 424 and 528 nm, respectively. The molar extinction coefficient of LZQ was 11,100 M^-1 cm^-1 at 424 nm and the quantum yield in the absence of I^- was 0.53. Stem-Volmer plots for quenching of LZQ and LMQ by I^- and Cl^-, with data for SPQ shown for comparison, were generated. In water (or saline), LZQ fluorescence was quenched by I^- with a Stem-Volmer constant of 60 M^-1. LZQ fluorescence was not quenched (Stem-Volmer constant <1 M^-1) by Cl^-, NO3^-, phosphate, acetate, Na^+ and K^+. LZQ fluorescence and I^- sensitivity were not affected by pH changes in the range 4.5-8.

[2] = In vitro fluorescence quenching by I^- (Stern-Volmer); assay type: physicochemical
Method: as §1, with “by: Fo /F=1+Kq [Q].” for “by:”

[3] = Fluorescence lifetime in water; assay type: physicochemical
Method: (§2) Time resolved fluorescence measurements. Fluorescence lifetime and anisotropy decay measurements were carried out in the frequency domain by cuvette fluorimetry using a Fourier transform fluorimeter (48000 MHF, SLM Instruments, Urbana, Ill.) or by fluorescence microscopy using epifluorescence microscope optics in place of the cuvette compartment (Verkman et al., 1991). For microscopy measurements, impulse-modulated vertically polarized light (442 nm, He--Cd laser 35 mwatts) was reflected onto the sample by a 510 nm dichroic mirror and objective lens; emitted fluorescence was filtered by a 515 nm barrier filter and passed through a rotatable analyzing calcite polarizer. In some experiments, a biconcave lens was introduced just in front of the dichroic mirror to diverge beam diameter in the focal plane to […].
(§3) Analysis of lifetime and time-resolved anisotropy was performed by a comparative approach. Generally six pairs of measurements (each acquisition 8 s) were obtained, comparing sample and reference (fluorescein in 0.1 N NaOH, lifetime 4.0 ns) for measurement of lifetime, and parallel and perpendicular orientations of the emission polarizer for measurement of anisotropy decay. […] Median phase and modulation values for paired data were analyzed by nonlinear least-squares for determination of lifetimes and rotational correlation times.

[4] = system: cells; assay: Photobleaching in cells; assay type: cell-based
Method: (§4) Fluorescence microscopy. Fluorescence microscopy measurements were performed as described previously (Chao et al., 1989). Briefly, coverglasses were mounted in a 0.5 ml perfusion chamber in which the cell-free glass surface made contact with an oil immersion objective (Nikon ×40 magnification, numerical aperture[NA] 1.3). Cell fluorescence was excited at 365±10 nm (SPQ) or 420 nm±10 nm (LZQ and LMQ). Emitted fluorescence was detected by a photomultiplier in a Nikon inverted epifluorescence microscope using a 410 nm dichroic mirror and 420 nm barrier filter (SPQ) or a 455 nm dichroic mirror and 500 nm barrier filter (LZQ). For cells colabeled with SPQ and LZQ, SPQ fluorescence was excited at 365±10 nm and detected using a 410 nm dichroic mirror and 455±30 nm interference filter. Confocal fluorescence micrographs were obtained using a Nipkow wheel confocal microscope and cooled CCD camera detector using a ×60 oil immersion objective (Nikon, NA 1.4). LZQ-labeled cells were viewed using a fluorescein filter set (excitation 480±15 nm, emission 520±20 nm).
(§5) A time course of LZQ fluorescence during perfusion with physiological saline at 23° C. was generated. A small group of 20-30 cells was illuminated continuously and fluorescence was detected by a photomultiplier using an ×40, 1.3 NA objective. Cellular fluorescence decreased slowly at a rate of 2.5% per hour. To determine the relative contributions of indicator leakage vs. photobleaching to the slow decline in fluorescence, the perfused cells were illuminated intermittently. […] Background fluorescence (in non-labeled cells) was generally <5% of the fluorescence of LZQ-labeled cells.

[5] = system: 3T3 fibroblasts expressing CFTR; assay: Intracellular sensitivity to I^-; assay type: cell-based, mouse
Method: as §4, with “LZQ-labeled cells were viewed using a fluorescein filter set (excitation 480±15 nm, emission 520±20 nm).” left out
as §5, with “hour.” for “hour. To determine the relative contributions of indicator leakage vs. photobleaching to the slow decline in fluorescence, the perfused cells were illuminated intermittently.”, “cells. […]” for “cells.”

[6] = system: cells; assay: Response of intracellular fluorescence to osmotically-induced changes in cell volume; assay type: cell-based
Method: as §4
The similar LZQ lifetime in cells and water predicts that LZQ fluorescence should be relatively insensitive to cell volume in the absence of I^-. […] When cells were exposed to hypoosmotic medium (225 mOsm), SPQ fluorescence increased by 15±2%, whereas LZQ fluorescence increased by only 4±1%.

[7] = Time-resolved anisotropy in water; assay type: physicochemical; conditions: single-component, n=3
Method: as §2, §3

emission maximum [1]: 528 nm | excitation maximum [1]: 424 nm | Brightness ([1]; Table 4): +++ | λem (emission wavelength) ([1]; Table 4): 528 nm | λex (excitation wavelength) ([1]; Table 4): 424 nm | molar extinction coefficient ([1]; at 424 nm): 11,100 M^-1 cm^-1 | quantum yield ([1]; in the absence of I^-): 0.53 | effect of pH on fluorescence ([1]; pH 4.5-8): not affected | effect of pH on I^- sensitivity ([2]; pH 4.5-8): not affected | fluorescence lifetime ([3]; in water, absence of I^-): 7.1 ns | quenching mechanism (lifetime decrease with [I^-]) ([3]; increasing [I^-]): collisional mechanism | Cellular properties: photobleaching ([4]; Table 4): slow | photobleaching, intermittent vs. continuous illumination ([4]; low light level conditions): absence of photobleaching | rotational correlation time [7]: 121±3 ps
SMILES: [O-]c1nc2c(N[C@@H]3O[C@H](CO)[C@@H](O)[C@H]3O)ncnc2[n+]2ccccc12 [I, 4-(β-D-ribofuranosylamino)-pyrido [2,1-h] pteridin-11-ium-5-olate]
Ksv (I^-), Stern Volmer quenching constant ([2]; Table 4): 60 M⁻¹ | Stern-Volmer constant, quenching by I^- ([2]; in water (or saline)): 60 M⁻¹ | intracellular Stern-Volmer constant, quenching by I^- ([5]; high [K^+] and ionophores): 26 M⁻¹ | cellular fluorescence response to I^- ([5]; repeated addition and removal of 50 mM I^-): large, reversible changes in fluorescence | fluorescence increase upon exposure to hypoosmotic medium ([6]; 225 mOsm): 4±1% | fluorescence change upon exposure to hyperosmotic medium ([6]; 600 mOsm, absence of I^-): 5±1%
